# Data taken from ChEMBL document CHEMBL4609995, “Rational design, synthesis and biological profiling of new KDM4C inhibitors” (Bioorg Med Chem, 2020).
# Legend:
# [1] = target: T1, Lysine-specific demethylase 4C (Homo sapiens) (UniProt Q9H3R0); experiment: Inhibition of KDM4C (unknown origin) at 10 uM using methylated H3 peptide as substrate by chemiluminescence assay relative to control
# T1 sequence (whole entry): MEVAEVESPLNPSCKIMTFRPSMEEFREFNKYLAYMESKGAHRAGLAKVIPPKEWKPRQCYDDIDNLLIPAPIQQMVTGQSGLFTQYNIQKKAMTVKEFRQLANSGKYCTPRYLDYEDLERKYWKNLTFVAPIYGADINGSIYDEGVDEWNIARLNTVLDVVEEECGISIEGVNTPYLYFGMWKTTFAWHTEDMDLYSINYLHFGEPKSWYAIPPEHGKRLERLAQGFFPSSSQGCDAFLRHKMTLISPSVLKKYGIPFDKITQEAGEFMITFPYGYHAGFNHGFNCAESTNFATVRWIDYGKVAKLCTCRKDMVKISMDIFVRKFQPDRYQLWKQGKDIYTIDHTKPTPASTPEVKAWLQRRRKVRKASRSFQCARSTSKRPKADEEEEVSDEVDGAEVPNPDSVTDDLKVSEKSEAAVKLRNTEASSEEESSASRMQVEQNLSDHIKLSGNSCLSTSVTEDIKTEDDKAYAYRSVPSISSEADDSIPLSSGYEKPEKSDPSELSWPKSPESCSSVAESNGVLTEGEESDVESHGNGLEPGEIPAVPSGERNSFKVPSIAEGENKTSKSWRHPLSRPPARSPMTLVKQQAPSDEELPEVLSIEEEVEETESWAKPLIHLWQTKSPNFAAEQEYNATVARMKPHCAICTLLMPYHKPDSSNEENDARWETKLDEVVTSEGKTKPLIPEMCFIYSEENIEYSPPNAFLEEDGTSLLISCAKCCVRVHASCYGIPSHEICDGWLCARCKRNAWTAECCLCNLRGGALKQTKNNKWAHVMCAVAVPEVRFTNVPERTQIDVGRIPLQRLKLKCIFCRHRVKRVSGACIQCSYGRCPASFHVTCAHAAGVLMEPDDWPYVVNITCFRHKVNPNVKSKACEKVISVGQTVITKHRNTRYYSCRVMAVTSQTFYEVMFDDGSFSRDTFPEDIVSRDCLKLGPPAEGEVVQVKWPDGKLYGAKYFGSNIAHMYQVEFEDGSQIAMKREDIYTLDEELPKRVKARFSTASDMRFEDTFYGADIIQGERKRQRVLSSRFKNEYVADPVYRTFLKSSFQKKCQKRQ
# [2] = Intrinsic clearance in mouse liver microsomes assessed per mg protein at 1 uM measured up to 60 mins in presence or absence of NADPH by LC-MS/MS analysis; format: ADME, Microsome; conditions: for microsomal CLint at 1 µM: liver microsomes, read-out: CLH
# [3] = test system: P-gp; experiment: Permeability across apical to basolateral side in MDCK2-MDR1 cells at 10 uM incubated for 60 mins in presence 2 uM P-gp inhibitor elacridar by LC-MS/MS analysis; format: ADME, cell-based, Canis lupus familiaris; conditions: dog, MDCK-MDR1, with elacridar 2 uM; read-out: permeability
# [4] = Substrate activity at P-gp in MDCK2-MDR1 cells at 10 uM incubated for 60 mins in presence or absence of 2 uM P-gp inhibitor elacridar by LC-MS/MS analysis; format: ADME, cell-based, Canis lupus familiaris; conditions: dog, mdck-mdr1, 1 h
# [5] = target: T2, Lysine-specific demethylase 4C (Homo sapiens, UniProt Q9H3R0); experiment: Inhibition of KDM4C (unknown origin) using methylated H3 peptide as substrate by chemiluminescence assay
# T2 sequence (Q9H3R0 whole entry): T1 sequence (whole entry)
# [6] = test system: A549; experiment: Antiproliferative activity against human A549 cells assessed as reduction in cell growth measured after 72 hrs by Alamar blue assay; format: functional, cell-based; conditions: A549, 72 h
# [7] = test system: HepG2; experiment: Antiproliferative activity against human HepG2 cells assessed as reduction in cell growth measured after 24 hrs by MTS assay; format: functional, cell-based; conditions: HepG2, 24 h
# [8] = test system: P-gp; experiment: Efflux ratio of permeability from basolateral to apical over apical to basolateral side in MDCK2-MDR1 cells MDCK2-MDR1 cells at 10 uM incubated for 60 mins in presence 2 uM P-gp inhibitor elacridar by LC-MS/MS analysis; format: ADME, cell-based, Canis lupus familiaris; conditions: dog, MDCK-MDR1, with elacridar 2 uM
# [9] = target: T3, Lysine-specific demethylase 4A (Homo sapiens, UniProt O75164); experiment: Inhibition of KDM4A (unknown origin)
# T3 sequence (O75164 whole entry): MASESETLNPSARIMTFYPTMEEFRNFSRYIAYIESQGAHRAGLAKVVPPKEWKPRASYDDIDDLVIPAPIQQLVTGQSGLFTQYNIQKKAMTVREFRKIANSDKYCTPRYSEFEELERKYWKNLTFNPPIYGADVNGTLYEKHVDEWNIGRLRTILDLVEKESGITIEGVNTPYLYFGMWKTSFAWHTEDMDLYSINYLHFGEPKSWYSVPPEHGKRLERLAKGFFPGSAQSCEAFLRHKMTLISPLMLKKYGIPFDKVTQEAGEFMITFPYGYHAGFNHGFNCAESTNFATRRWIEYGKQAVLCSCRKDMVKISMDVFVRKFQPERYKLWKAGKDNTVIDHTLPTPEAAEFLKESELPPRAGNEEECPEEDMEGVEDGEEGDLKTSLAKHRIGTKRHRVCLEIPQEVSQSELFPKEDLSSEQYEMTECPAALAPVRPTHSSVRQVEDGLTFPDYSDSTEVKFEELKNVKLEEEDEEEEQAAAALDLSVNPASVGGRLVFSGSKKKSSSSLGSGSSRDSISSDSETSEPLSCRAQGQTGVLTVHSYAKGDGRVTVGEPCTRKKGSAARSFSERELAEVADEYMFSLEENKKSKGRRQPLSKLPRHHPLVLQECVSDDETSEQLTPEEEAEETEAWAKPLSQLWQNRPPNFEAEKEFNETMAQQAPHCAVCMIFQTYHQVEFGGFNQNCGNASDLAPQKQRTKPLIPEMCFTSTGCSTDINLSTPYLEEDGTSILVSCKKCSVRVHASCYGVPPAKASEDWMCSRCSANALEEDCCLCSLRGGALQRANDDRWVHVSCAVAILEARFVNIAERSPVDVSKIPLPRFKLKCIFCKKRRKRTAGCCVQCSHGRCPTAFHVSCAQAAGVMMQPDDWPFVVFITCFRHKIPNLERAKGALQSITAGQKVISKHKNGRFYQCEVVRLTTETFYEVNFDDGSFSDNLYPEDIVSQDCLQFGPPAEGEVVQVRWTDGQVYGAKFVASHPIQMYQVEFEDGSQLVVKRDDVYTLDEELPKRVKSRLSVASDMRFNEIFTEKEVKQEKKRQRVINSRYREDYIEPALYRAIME
# [10] = species on record: Homo sapiens; experiment: Selectivity ratio, ratio of IC50 for KDM4A (unknown origin) to IC50 for KDM4C (unknown origin)
# [11] = target: T2, Lysine-specific demethylase 4C; experiment: Inhibition of KDM4C (unknown origin)
# [12] = Electrochemical behavior of the compound assessed as reduction in redox potential; format: physicochemical
SMILES,inhibition [1],microsomal CLint at 1 µM [2],"Papp A→B at 1 h, 10 µM [3]",Activity [4],IC50 ([5]; read-out: IC50),IC50 [6],IC50 [7],"efflux ratio at 1 h, 10 µM [8]",IC50 [5],IC50 [9],Ratio IC50 [10],IC50 [11],"CLint ([2]; microsomes, 1 h, 1 µM)",Activity [12]
COc1ccc(/C=N/N(C)c2cc(=O)n(C)c(=O)[nH]2)cc1,40 to 70%,,,,,,,,,,,,,
Cn1c(=O)nc2[nH]nc(-c3ccccc3)nc-2c1=O,,< 12.5 µL/min/mg,35.5 ×10⁻⁶ cm/s,Not Active,7630 nM,> 30 µM,> 25000 nM,< 2,,,,,,
Cn1nc(-c2ccccc2)nc2c(=O)n(C)c(=O)nc1-2,,< 12.5 µL/min/mg,34.7 ×10⁻⁶ cm/s,Not Active,130 nM,1.1 µM,870 nM,< 2,,,,,,
CN(C)c1ccccc1-c1nc2c(=O)n(C)c(=O)nc-2n(C)n1,,< 12.5 µL/min/mg,18 ×10⁻⁶ cm/s,Not Active,16 nM,5.7 µM,2100 nM,< 2,,,,,,
COC(=O)C1(c2ccc(-c3nc4c(=O)n(C)c(=O)nc-4n(C)n3)cc2)CC1,,< 12.5 µL/min/mg,24.9 ×10⁻⁶ cm/s,Not Active,,1.3 µM,1200 nM,< 2,Not Active,,,,,
Cn1ncnc2c(=O)n(C)c(=O)nc1-2,,< 12.5 µL/min/mg,16 ×10⁻⁶ cm/s,Not Active,541 nM,0.022 µM,4500 nM,< 2,,2500 nM,5,500 nM,,
Cn1nc(-c2ccn(C)c(=O)c2)nc2c(=O)n(C)c(=O)nc1-2,,,1.1 ×10⁻⁶ cm/s,Active,,8.8 µM,4500 nM,< 2,Not Active,,,,71.8 µL/min/mg,
Cn1nc(-c2ccc(S(N)(=O)=O)cc2)nc2c(=O)n(C)c(=O)nc1-2,,< 12.5 µL/min/mg,0.8 ×10⁻⁶ cm/s,Not Active,42 nM,> 30 µM,5600 nM,< 2,,,,,,
Cn1nc(-c2ccccc2)nc2n(C)c(=O)nc1-2,,13.1 µL/min/mg,40.6 ×10⁻⁶ cm/s,Not Active,12700 nM,> 30 µM,> 25000 nM,< 2,,,,,,
COc1ccc(-c2nc3c(=O)n(C)c(=O)nc-3n(C)n2)cc1,,< 12.5 µL/min/mg,34.5 ×10⁻⁶ cm/s,Not Active,8 nM,1.1 µM,800 nM,< 2,,,,,,
Cn1nc(-c2ccc(C#N)cc2)nc2c(=O)n(C)c(=O)nc1-2,,< 12.5 µL/min/mg,26.8 ×10⁻⁶ cm/s,Not Active,11 nM,1.9 µM,800 nM,< 2,,,,,,
Cn1nc(-c2ccc(O)cc2)nc2c(=O)n(C)c(=O)nc1-2,,< 12.5 µL/min/mg,13.2 ×10⁻⁶ cm/s,Not Active,242 nM,5.8 µM,1100 nM,< 2,,,,,,
CN(/N=C/c1ccccc1)c1cc(=O)n(C)c(=O)[nH]1,> 70%,,,,,,,,,,,,,Active
CN(/N=C/c1ccc(F)cc1)c1cc(=O)n(C)c(=O)[nH]1,> 70%,,,,,,,,,,,,,
CN(C)c1ccccc1/C=N/N(C)c1cc(=O)n(C)c(=O)[nH]1,40 to 70%,,,,,,,,,,,,,
Cn1c(=O)[nH]c2ccc(-c3ccccc3)cc2c1=O,,229 µL/min/mg,27.3 ×10⁻⁶ cm/s,Not Active,> 10000 nM,> 30 µM,> 25000 nM,< 2,,,,,,
Cn1nc(-c2ccc(F)cc2)nc2c(=O)n(C)c(=O)nc1-2,,< 12.5 µL/min/mg,30.6 ×10⁻⁶ cm/s,Not Active,81 nM,1.6 µM,820 nM,< 2,,,,,,
CN(/N=C/c1ccc(O)cc1)c1cc(=O)n(C)c(=O)[nH]1,40 to 70%,,,,,,,,,,,,,
Cn1nc(-c2ccncc2)nc2c(=O)n(C)c(=O)nc1-2,,11.6 µL/min/mg,13.4 ×10⁻⁶ cm/s,Not Active,19 nM,4.3 µM,1800 nM,< 2,,,,,,
Cn1nc(Cc2ccccc2)nc2c(=O)n(C)c(=O)nc1-2,,< 12.5 µL/min/mg,25.3 ×10⁻⁶ cm/s,Not Active,29 nM,> 30 µM,5100 nM,< 2,,,,,,
